One assay has as its system Huh7, bmDC, CHO, COS7. Nature of the assay: Flow cytometry depending on concentration in various cell lines. It counts as cell-based. The method, then:
(§1) Cells were cultured at 37° C., 5% CO2 incubator and grown to 90˜100% confluence. The confluence. The medium was removed and washed with PBS, 1 mL of OPTI-MEM was added to each well and cultured at 37° C., 5% CO2 incubator for an hour for cell starvation. After washing with OPTI-MEM once, cells were treated with peptide in OPTI-MEM (concentration of […]) and FITC (concentration of 10 μM), cultured at 37° C., 5% CO2 incubator. After removing the medium, cells were washed with 1×PBS three times and harvested using Trysin/EDTA. The cellular uptake of FITC and the rest of FITC-conjugated peptide was compared and analyzed with untreated cell cells as a control.
(§2) Cell penetrating property of PEP1 was investigated by treating PEP1 with various cell various cell lines depending on concentrations and time. Specific analytical methods followed the methods described in Example 2. […] In the case of HepG2 cell line, cell penetrating property of TAT was increased whereas that of PEP1 was decreased at a concentration of 50 μM. […] When observing cell penetrating property of the peptide depending on time, the cell penetrating property was increased in Huh7, MCF7 and HeLA cell lines. Especially, in MCH7 cell line when 5 μM of the peptide was treated, cell penetrating property was increased 10 times higher in all time (FIG. 24 to FIG. 26)
A general note: In flow cytometry, cells or beads pass a laser one at a time.

The next assay concerns HepG2 cell line. Description: Flow cytometry depending on concentration, HepG2. It counts as cell-based, human. The conditions noted are these: HepG2, 50 μM. The method, then: as §1, §2
The subject of another assay is Raji (Human B cell line). Description: Flow cytometry of cell penetrating property, Raji. In kind it is cell-based. An excerpt:
(§3) Jurkat (Human T cell line), THP1 (Human mononuclear cell line), Raji (Human B cell line), K562 cell line (Human Leukemia cell line) were used as enriched cell line to treat the peptide depending on concentrations, temperature and time and to analyze the cell penetrating property of the peptide. […] There was no difference in cell penetrating property of PEP1 in all cell lines depending on temperature.

Assay [1] has as its system K562 cell line (Human Leukemia cell line). Description: Flow cytometry of cell penetrating property, K562. It counts as cell-based.
Source text: as §3

Assay [2] deals with human PBMC. Nature of the assay: Flow cytometry of cell penetrating property in human PBMC. It counts as cell-based. The method, then: PBMC (peripheral blood mononuclear cell) and lymphocytes were prepared from the human blood samples (50 ml) collected from healthy subjects using Biocoll Separating Solution (Biochrom AG, Berlin, Germany).
PBMC separated from human blood was used to treat the peptide depending on concentrations, temperature and time and to analyze the cell penetrating property of the peptide. […] Depending on concentrations, cell penetrating property of PEP1 was increased in both lymphocytes and the monocytes. […] (FIG. 32 to FIG. 34)

In assay [3] the test system is human PBMC. Nature of the assay: Flow cytometry after chemical treatment, human PBMC. It counts as cell-based. The conditions noted are these: whole PBMC, chemical treatment an hour before peptide. The method, then: With PBMC separated from human blood, chemical treatment utilization analysis was performed to verify a mechanism of cell penetration. Concentration of chemical treatment was decided based on the data reported in JBC(278(36), 34141-34149 in […]. OPTI-MEM was treated with chemical treatment and washed with PBS an hour before PEP1 peptide was treated and flow cytometry analysis was performed.
(§4) To compare and analyze the cell penetrating property of the peptide using various various antibodies, HSP70, enolase, GAPDH (santacruz), HSP90 antibodies were used. Cells were treated with heparin (10 μg/ml), methyl beta cyclodextrin (5 mM), nocodazole (20 μM), Brefeldin A (10 μM), cytochalasin F (5 μM) or choloroqune (100 μM) an hour before cells were cultured by the peptide. After then, cells were washed with PBS, peptide treatment was performed by flow cytometry analysis as the same method described in Example 2. Anti-HSP70, anti-Enolase and anti-GAPDH antibodies were purchased from Santacruz and anti-HSP90 antibody as purchased from Abcam. To analyze the role of each protein in penetration into cells, cells were treated with antibodies corresponding to the proteins with the same method.

The next assay has as its system Jurkat cell line. Nature of the assay: Flow cytometry after chemical treatment, Jurkat. It counts as cell-based, human. To be noted: all of the chemical treatment.
For another assay, the system named is hPBMC. Nature of the assay: Cell penetrating property after treatment with various antibodies. It counts as cell-based, human. The method, then:
The fact that HSP70/90 plays an important role in cell penetrating property of Pep1 was analyzed using HSP70/90 antibody. Antibodies of GAPDH, HSP70, HSP90 and enolase were treated in PBMC separated from human blood, lymphocyte, and Jurkat to perform flow cytometry. Antibodies of GAPDH and enolase were used as control.
as §4

The next assay relates to luciferase in Huh7 cells. Nature of the assay: Luciferase assay with siRNA-CPP conjugates, Huh7. It counts as cell-based, human. The conditions noted are these: Huh cell line, siRNA 400 nM, 16 hours. The method, then:
Huh7 (human hepatocellular carcinoma) cells obtained from ATCC was cultured in a RPMI 1640 medium (Hyclon) containing 10% fetal bovine serum (Invitrogen Co., Carlsbad, Calif., USA), […] L-glutamine, 100 ug/ml penicillin and 100 units/ml of streptomycin at 37° C., 5% CO2 incubator.
2×10^5 of Huh7 cells were inserted into each well of a 24 well plate and were grown. Transient transfection on the cells was performed using 2 ug of luciferase objective DNA and lipofectamin 2000 (Invitrogen Co., Carlsbad, Calif., USA). After 4 hours, lipofectamin 2000 was perfectly washed with PBS several times; siRNA of final concentration of […] was treated in 500 ul of Opti-MEM (Invitrogen Co., Carlsbad, Calif., USA) and was reacted at 37° C. incubator for 16 hours. To terminate the reaction, cells were washed with PBS and proteins were lysed using Reporter Lysis Buffer (Progema Co., Madison, Wis., USA) solution and the luminescence was measured by luminometer (Turner BioSystem, Sunnyvale, Calif., USA) using luciferase reagent (Promega Co., Madison, Wis., USA). Efficacy of siRNA was corrected by Bradford protein assay.

In a further assay the test system is CHO and HepG2 cells. Description: Uptake analysis of pep1-FITC in vitro by flow cytometry (primary experiment). It counts as cell-based. The method, then:
Flow cytometry and Confocal microscopy analysis were performed to compare the degree of cellular uptake among differentcell lines treated with pep1 (SEQ ID NO: 1) and the previously known PTD, TAT ([…]) (SEQ ID NO: 10) of HIV.
as §1

A further assay relates to Huh7 cell line. Description: Flow cytometry of cell penetrating property in Huh7 cell line. It counts as cell-based, human. The method, then:
(§5) The cell line was divided in a 6-well plate and cultured in a medium containing 10% fetal bovine serum (Invitrogen, USA), 100 μg/ml penicillin, 100 units/ml streptomycin at 37° C., 5% CO2 incubator for 12 hours. After washing the cell line with PBS, starvation was induced in a Minimum Essential Medium for an hour. 20 uM of each carrier peptide was treated and cultured at 37° C. for an hour. After repeating the step of washing the cells with PBS for three times, Trypsin-EDTA was treated form 10 mins at 37° C. to separate the carrier peptide on the outside of the cell. cells were collected with refrigerated PBS and centrifugation was performed to repeat the step of washing the cells for three times. After then, the cells were suspended in 0.5 ml of PBS containing 4% Paraformaldehyde and fluorescence of the cells was analyzed using FACS Calibur (Becton Dickinson). The cellular uptake aspect of control and various peptides combined with FITC was compared and analyzed by MFI (Mean Fluorescence Intensity).
To investigate cell penetrating property of PEP1, flow cytometry was performed in Huh7 cell line treated with PEP1. The analytical methods used were same as described in above (1) HeLa cell line analysis. […] (FIG. 9 and FIG. 10)

In a further assay the test system is human T lymphocyte. Nature of the assay: FACS of cell penetrating property in human T lymphocyte. It counts as cell-based. The method, then: as §5
To investigate cell penetrating property of PEP1, the peptide was treated in human T lymphocyte, and FACS (Fluorescence-activated sell sorting) was performed as flow cytometry analysis. The analytical method used was same as described in above (1) HeLa cell line analysis. […] (FIG. 11 and FIG. 12)

A further assay has as its system MCF7 cell line. Nature of the assay: Flow cytometry depending on concentration and time, MCF7. It counts as cell-based, human. The method, then: as §1, §2
In assay [4] the test system is Huh7, MCF7 and HeLA cell lines. Nature of the assay: Flow cytometry depending on time. In kind it is cell-based, human. The method, then:
as §1, §2

For assay [5], the system named is THP1 (Human mononuclear cell line). Nature of the assay: Flow cytometry of cell penetrating property, THP1. In kind it is cell-based.
Source text: as §3

For a further assay, the system named is Jurkat, THP1, Raji, K562. Nature of the assay: Cell penetrating property depending on concentration, temperature and time in enriched cell lines. It counts as cell-based, human.
Source text: as §3

The next assay relates to Huh7, HepG2, CHO, bmDC. Nature of the assay: Flow cytometry and confocal analysis depending on location of FITC. It counts as cell-based. To be noted: fluorescence microscope. The method, then: as §5
To investigate cell penetrating property of PEP1 in various cell lines, flow cytometry and Confocal microscope analysis were performed using a conjugate of PEP1 combined with FITC at N, and C-terminal of the peptide. The analytical method used was same as described in above (1) HeLa cell line analysis. The cell lines used were Huh7, HepG2, CHO, bmDC. […] (FIG. 14)

No end group written: not given here. *: point of attachment. FITC = O=C1OC2(c3ccc(O)cc3Oc3cc(O)ccc32)c2ccc(NC(=S)*)cc21

Regarding YGRKKRRQRRR [TAT, reference compound], in the assay on Huh7, bmDC, CHO, COS7, the “cell penetrating property depending on concentrations” value is “tendency to increase”. For the same substance, the “cell penetrating property at a concentration of 50 μM” value in the assay on HepG2 cell line is “increased”. In addition, the “cell penetrating property, TAT compared with PEP1” value (in the assay with Raji (Human B cell line); in assay [1]) was “higher cell penetrating property than PEP1” throughout. Further, the “cell penetrating property depending on concentrations and time” value in the assay on human PBMC [2] (whole PBMC) was “increased”. Further, the “effect of chemical treatment (MatCD and others) on cell penetrating property” value with human PBMC [3] is reported as “increased”. For the same substance, the “effect of chemical treatment on cell penetrating property” value with Jurkat cell line is on record as “no effect”. Further, the “absorption after treatment with HSP70 and HSP90 specific antibodies” value in the assay on hPBMC is “not affected”.

Take “siLuc conjugation with Mercaptoacetyl-Ahx-YGRKKRRQRRR (not fully specified (N-terminus); printed as Mercaptoacetyl-Ahx-YGRKKRRQRRR; also: conjugated to luciferase siRNA; UniProt P04608 47-57, looked up, fragment) [siLuc-Tat(47-57)]”: the “reduction of luciferase activation compared with the same peptide in siRNA combined with control” value (“reduction of luciferase activation” for short) with luciferase in Huh7 cells is “no significant difference”.

With “siLuc conjugation with Mercaptoacetyl-Ahx-RQIKIWFQNRRMKWKK [siLuc-Penetratin]”, the “reduction of luciferase activation” value in the assay on luciferase in Huh7 cells is “approx. 28%”.

Turning to “EARPALLTSRLRFIPK (listed as Homo sapiens) [pep1]”, the “cell penetrating ability depending on position of FITC” value with CHO and HepG2 cells is “best when FITC was conjugated with lysine residue in C terminal”. Moreover, the “cell penetrating ability compared with TAT” value in the assay with CHO and HepG2 cells (FITC-labelled peptides) is on record as “better cell penetrating ability than TAT”. Further, the “cell penetrating property compared with TAT and control” value in the assay on Huh7 cell line is listed as “lower than that of TAT but higher than that of control”. For the same substance, in the assay with human T lymphocyte, the “cell penetrating property, times higher than HIV derived TAT” value came to 6 times. Besides, in the assay on human T lymphocyte, the “cell penetrating property, times higher than control FITC” value is 25 times. Also, the “cell penetrating property depending on concentrations” value in the assay with Huh7, bmDC, CHO, COS7 was “tendency to increase”; with Jurkat, THP1, Raji, K562 (all cell lines) it was “tendency to increase”; in the assay with human PBMC [2] (lymphocytes and monocytes), “increased”. Besides, the “cell penetrating property at a concentration of 50 μM” value in the assay with HepG2 cell line is recorded as “decreased”. The “cell penetrating property, times higher than TAT” value worked out at 4 times in the assay on MCF7 cell line (MCF cell line) and 1.4 times in the assay on human PBMC [2] (whole PBMC). In addition, the “cell penetrating property, times higher in all time” value in the assay with MCF7 cell line (MCH7 cell line, 5 μM of the peptide, comparator not stated) worked out at 10 times. Further, the “cell penetrating property depending on time” value in assay [4] was “increased”; in assay [5], “decreased over time”; in the assay on human PBMC [2] (lymphocytes and monocytes) it was “tendency to increase”. Besides, the “cell penetrating property depending on temperature” value in the assay on Jurkat, THP1, Raji, K562 (all cell lines) was “no difference”. In addition, the “increase of cell penetrating property depending on time” value with Jurkat, THP1, Raji, K562 (cell lines other than THP1) is “more than 3 times”. For the same substance, the “cell penetrating property, increase (times)” value in the assay with human PBMC [2] (lymphocytes) was 1.8 times. Further, the “increase of cell penetrating property compared to TAT” value in the assay on human PBMC [2] (monocytes, 5 hours) is recorded as “more than 20%”. In the assay with human PBMC [2] (whole PBMC), the “cell penetrating property depending on concentrations and time” value is given as “increased”. Also, in the assay with human PBMC [3], the “effect of chemical treatment (MatCD and others) on cell penetrating property” value is given as “tend to be suppressed”. Also, the “effect of chemical treatment on cell penetrating property” value with Jurkat cell line was “tendency to suppress”. In addition, in the assay with hPBMC, the “absorption after treatment with HSP70 and HSP90 specific antibodies” value was “remarkably reduced”.

In the case of “pep1-FITC: pep1 labeled with FITC at the C-terminal (lysine) (EARPALLTSRLRFIPK(FITC); listed as Homo sapiens)”, the “penetration into the cytoplasm, C-terminal vs N-terminal FITC” value in the assay with Huh7, HepG2, CHO, bmDC is reported as “higher cell penetrating property to penetrate into the cytoplasm than PEP1 combined with FITC at N-terminal”. Besides, the “absorption after treatment with HSP70 and HSP90 specific antibodies” value with hPBMC was “remarkably reduced”. The “absorption after treatment with GAPDH or Enolase specific antibodies” value in the assay with hPBMC (control antibodies) is listed as “no effect”.

“siLuc conjugation with Mercaptoacetyl-Ahx-LRALPKRPFISRLTEA [siLuc-scrambled pep1]”: in the assay with luciferase in Huh7 cells, the “reduction of luciferase activation” value is listed as “no significant difference”.

The values are drawn from patent US10967000B2, “Cell-penetrating peptide, conjugate comprising same and composition comprising same” (GemVax & KAEL Co., Ltd., priority 2012, dated 2021).
